The values below come from patent publication US8598154B2 (Corcept Therapeutics, Inc., priority 2010, dated 2013).

As usually defined, the Ki is a dissociation constant, usually derived from enzyme kinetics or from competition with a known ligand.

The target of test [1] is T1, glucocorticoid receptors (GR) in SW1353/MMTV-5 cells (Homo sapiens, UniProt P04150).
T1 construct: contains endogenous glucocorticoid receptors; endogenous in cells; host or cells: SW1353/MMTV-5 (human chondrosarcoma, stably transfected with the pMAMneo-Luc reporter only)
T1 sequence (P04150 1-777): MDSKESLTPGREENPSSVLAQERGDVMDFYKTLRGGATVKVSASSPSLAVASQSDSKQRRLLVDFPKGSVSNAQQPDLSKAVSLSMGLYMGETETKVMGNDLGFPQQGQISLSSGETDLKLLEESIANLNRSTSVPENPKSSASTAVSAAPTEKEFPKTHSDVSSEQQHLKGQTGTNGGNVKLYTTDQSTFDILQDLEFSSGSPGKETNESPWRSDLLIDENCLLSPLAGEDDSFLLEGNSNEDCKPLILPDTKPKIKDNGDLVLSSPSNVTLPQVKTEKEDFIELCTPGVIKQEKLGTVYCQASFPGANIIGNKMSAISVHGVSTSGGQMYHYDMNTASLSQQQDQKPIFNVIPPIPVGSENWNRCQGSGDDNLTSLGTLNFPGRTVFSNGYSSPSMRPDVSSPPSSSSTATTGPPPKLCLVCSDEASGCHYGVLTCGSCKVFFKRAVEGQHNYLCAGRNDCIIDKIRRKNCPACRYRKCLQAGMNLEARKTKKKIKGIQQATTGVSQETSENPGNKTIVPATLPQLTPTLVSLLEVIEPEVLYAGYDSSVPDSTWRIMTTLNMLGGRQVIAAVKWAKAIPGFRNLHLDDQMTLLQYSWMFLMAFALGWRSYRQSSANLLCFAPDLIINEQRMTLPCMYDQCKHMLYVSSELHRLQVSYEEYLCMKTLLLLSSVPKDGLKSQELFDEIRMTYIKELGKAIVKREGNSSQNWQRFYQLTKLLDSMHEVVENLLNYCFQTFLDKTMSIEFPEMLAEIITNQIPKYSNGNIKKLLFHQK
The test can be described thus: GR functional assay using SW1353/MMTV-5 cells (MMTV-luciferase reporter). The test is classed as cell-based. As to the method:
SW1353/MMTV-5 is an adherent human chondrosarcoma cell line that contains endogenous glucocorticoid receptors. It was transfected with a plasmid (pMAMneo-Luc) encoding firefly luciferase located behind a glucocorticoid-responsive element (GRE) derived from a viral promoter (long terminal repeat of mouse mammary tumor virus). A stable cell line SW1353/MMTV-5 was selected with geneticin, which was required to maintain this plasmid.
SW1353/MMTV-5 cells were distributed in 96-well plates and incubated in medium (without geneticin) for 24 hrs (in the absence of CO2).
(In general: In a reporter assay the amount or activity of a reporter protein is the signal.)

For test [2], the target named is T2, Human Recombinant Glucocorticoid Receptor (Homo sapiens, UniProt P04150).
T2 construct: This GR was a full-length steroid hormone receptor likely to be associated with heat-shock and other endogenous proteins; host or cells: baculovirus-infected insect cells
T2 sequence (P04150 1-777): T1 sequence (P04150 1-777)
The experiment in a line: Glucocorticoid receptor binding displacement assay with 3H-dexamethasone. As to conditions: displacement of 2.5 nM 3H-dexamethasone; Ki from IC50 by Cheng-Prusoff; read-out: GR Binding Ki. The procedure:
The source of the receptor was recombinant baculovirus-infected insect cells. This GR was a full-length steroid hormone receptor likely to be associated with heat-shock and other endogenous proteins.
For the Primary Screen, test compounds were tested at 1 μM in duplicate. These compounds were diluted from 10 mM stock in 100% DMSO. After dilution to 100 μM, 5 μl were added to 245 μl assay buffer to obtained 2 μM compound and 2% DMSO.
For the IC50 determinations, test compounds were tested at 6 concentrations in duplicate (concentration range depends on % inhibition binding that was obtained in the Primary Screen). Test compounds were diluted from 10 mM stock in 100% DMSO. The tested solutions were prepared at 2× final assay concentration in 2% DMSO/assay buffer.
All reagents and the assay plate were kept on ice during the addition of reagents. […] After the additions, the incubation mixture was mixed and incubated for 2.5 hrs at 4° C.
After 2.5 hrs incubation, unbound counts were removed with dextran coated charcoal (DCC) as follows: 25 μl of DCC solution (10% DCC in assay buffer) was added to all wells and mixed (total volume 225 μl). The plate was centrifuged at 4000 rpm for 10 minutes at 4° C. 75 μl of the supernatants (i.e.⅓ of total volume) was carefully pipetted into an optiplate. 200 μl of scintillation cocktail were added (Microscint-40, Packard Bioscience. B.V.). The plate was vigorously shaken for approx. 10 minutes and counted on Topcount.
The IC50 values were converted to Ki (the inhibition constant) using the Cheng-Prusoff equation. Test results are presented in Tablel.
Reagents: Assay buffer: 10 mM potassium phosphate buffer pH 7.6 containing 5 mM DTT, 10 mM sodium molybdate, 100 μM EDTA and 0.1% BSA.

For `CCOC[C@]12Cc3cnn(-c4ccc(F)cc4)c3C=C1CCN(S(=O)(=O)c1ccc(N3CCOCC3)nc1)C2` [Example 1, (R)-4a-Ethoxymethyl-1-(4-fluorophenyl)-6-[[6-(4-morpholinyl)-3-pyridinyl]sulfonyl]-1,4,7,8-tetrahydro-1,2,6-triazacyclopenta[b]naphthalene], the inhibition constant Ki in test [1] is less than 10 nM; in test [2], less than 0.5 nM. Regarding `COC(=O)[C@]12Cc3cnn(-c4ccc(F)cc4)c3C=C1CCN(S(=O)(=O)c1ccc(N3CCOCC3)nc1)C2` [Example 1c, (R)-1-(4-Fluorophenyl)-6-(6-morpholin-4-ylpyridine-3-sulfonyl)-1,4,5,6,7,8-hexahydro-1,2,6-triazacyclopenta[b]naphthalene-4a-carboxylic acid methyl ester], the Ki in test [1] was greater than 50 nM; in test [2] it was greater than 1 nM. On the same counts, the results for `O=S(=O)(c1ccc(N2CCOCC2)nc1)N1CCC2=Cc3c(cnn3-c3ccc(F)cc3)C[C@]2(CO)C1` [Example 1d, [(R)-1-(4-Fluorophenyl)-6-[[6-(4-morpholinyl)-3-pyridinyl]sulfonyl]-1,4,7,8-tetrahydro-1,2,6-triazacyclopenta[b]naphthalen-4a-yl]methanol] are greater than 50 nM and greater than 1 nM. On the same counts, the results for `CCOC[C@]12Cc3cnn(-c4ccc(F)cc4)c3C=C1CCN(S(=O)(=O)c1cccnc1)C2` [Example 2, (R)-4a-Ethoxymethyl-1-(4-fluorophenyl)-6-[[3-pyridinyl]sulfonyl]-1,4,7,8-tetrahydro-1,2,6-triazacyclopenta[b]naphthalene] are 10 to 50 nM and 0.5 to 1 nM.

As for `CCOC[C@]12Cc3cnn(-c4ccc(F)cc4)c3C=C1CCN(S(=O)(=O)c1cnc3c(c1)OCCN3C)C2` [Example 3], the Ki in test [1] is 10 to 50 nM; in test [2], less than 0.5 nM. Regarding `CCOC[C@]12Cc3cnn(-c4ccc(F)cc4)c3C=C1CCN(S(=O)(=O)c1ccc(N3CCCC3)nc1)C2` [Example 4, (R)-4a-Ethoxymethyl-1-(4-fluorophenyl)-6-[[6-(1-pyrrolidinyl)-3-pyridinyl]sulfonyl]-1,4,7,8-tetrahydro-1,2,6-triazacyclopenta[b]naphthalene], the results for the Ki in test [1] and in test [2] were 10 to 50 nM and greater than 1 nM, respectively. Turning to `COC[C@]12Cc3cnn(-c4ccc(F)cc4)c3C=C1CCN(S(=O)(=O)c1ccc(N3CCCC3)nc1)C2` [Example 5, (R)-1-(4-Fluorophenyl)-4a-methoxymethyl-6-[[6-(1-pyrrolidinyl)-3-pyridinyl]sulfonyl]-1,4,7,8-tetrahydro-1,2,6-triazacyclopenta[b]naphthalene], the Ki in test [1] lay in the range of 10 to 50 nM; in test [2], 0.5 to 1 nM. On the same counts, the results for `CCOC[C@]12Cc3cnn(-c4ccc(F)cc4)c3C=C1CCN(S(=O)(=O)c1ccc(N3CCC3)nc1)C2` [Example 6, (R)-6-[[6-(1-Azetidinyl)-3-pyridinyl]sulfonyl]-4a-ethoxymethyl-1-(4-fluorophenyl)-1,4,7,8-tetrahydro-1,2,6-triazacyclopenta[b]naphthalene] are 10 to 50 nM and 0.5 to 1 nM. On the same counts, the results for `CCOC[C@]12Cc3cnn(-c4ccc(F)cc4)c3C=C1CCN(S(=O)(=O)c1ccc(NC)nc1)C2` [Example 7, (R)-4a-Ethoxymethyl-1-(4-fluorophenyl)-6-[[6-methylamino-3-pyridinyl]sulfonyl]-1,4,7,8-tetrahydro-1,2,6-triazacyclopenta[b]naphthalene] are 10 to 50 nM and less than 0.5 nM. The corresponding values for `CCOC[C@]12Cc3cnn(-c4ccc(F)cc4)c3C=C1CCN(S(=O)(=O)c1ccc(N(C)C)nc1)C2` [Example 8, (R)-6-[[6-Dimethylamino-3-pyridinyl]sulfonyl]-4a-ethoxymethyl-1-(4-fluorophenyl)-1,4,7,8-tetrahydro-1,2,6-triazacyclopenta[b]naphthalene] are less than 10 nM and less than 0.5 nM.

As to `CNc1ccc(S(=O)(=O)N2CCC3=Cc4c(cnn4-c4ccc(F)cc4)C[C@]3(COC)C2)cn1` [Example 9, (R)-1-(4-Fluorophenyl)-4a-methoxymethyl-6-[[6-methylamino-3-pyridinyl]sulfonyl]-1,4,7,8-tetrahydro-1,2,6-triazacyclopenta[b]naphthalene], the Ki was greater than 50 nM in test [1] and greater than 1 nM in test [2]. The corresponding values for `COC[C@]12Cc3cnn(-c4ccc(F)cc4)c3C=C1CCN(S(=O)(=O)c1ccc(N(C)C)nc1)C2` [Example 10, (R)-6-[[6-Dimethylamino-3-pyridinyl]sulfonyl]-1-(4-fluorophenyl)-4a-methoxymethyl-1,4,7,8-tetrahydro-1,2,6-triazacyclopenta[b]naphthalene] are 10 to 50 nM and 0.5 to 1 nM. Turning to `COC[C@]12Cc3cnn(-c4ccc(F)cc4)c3C=C1CCN(S(=O)(=O)c1ccc(N3CCC3)nc1)C2` [Example 11, (R)-6-[[6-(1-Azetidinyl)-3-pyridinyl]sulfonyl]-1-(4-fluorophenyl)-4a-methoxymethyl-1,4,7,8-tetrahydro-1,2,6-triazacyclopenta[b]naphthalene], the Ki in test [1] was 10 to 50 nM; in test [2] it was 0.5 to 1 nM. As to `COC[C@]12Cc3cnn(-c4ccc(F)cc4)c3C=C1CCN(S(=O)(=O)c1cncc(N3CCOCC3)c1)C2` [Example 12, (R)-1-(4-Fluorophenyl)-4a-methoxymethyl-6-(5-morpholin-4-ylpyridine-3-sulfonyl)-4,4a,5,6,7,8-hexahydro-1H-1,2,6-triazacyclopenta[b]naphthalene], the Ki in test [1] was greater than 50 nM; in test [2] it was greater than 1 nM. The corresponding values for `COC[C@]12Cc3cnn(-c4ccc(F)cc4)c3C=C1CCN(S(=O)(=O)c1cncc(N3CCC3)c1)C2` [Example 13, (R)-6-(5-Azetidin-1-ylpyridine-3-sulfonyl)-1-(4-fluorophenyl)-4a-methoxymethyl-4,4a,5,6,7,8-hexahydro-1H-1,2,6-triazacyclopenta[b]naphthalene] are 10 to 50 nM and less than 0.5 nM. For the compound `COC[C@]12Cc3cnn(-c4ccc(F)cc4)c3C=C1CCN(S(=O)(=O)c1ccc(N3CCOCC3)nc1)C2` [Example 14, (R)-1-(4-Fluorophenyl)-4a-methoxymethyl-6-(6-morpholin-4-yl-pyridine-3-sulfonyl)-4,4a,5,6,7,8-hexahydro-1H-1,2,6-triazacyclopenta[b]naphthalene], the Ki in test [1] fell in the range of 10 to 50 nM; in test [2], 0.5 to 1 nM. Turning to `O=S(=O)(c1ccc(N2CCOCC2)nc1)N1CCC2=Cc3c(cnn3-c3ccc(F)cc3)C[C@]2(COC(F)F)C1` [Example 15, (R)-4a-Difluoromethoxymethyl-1-(4-fluorophenyl)-6-(6-morpholin-4-yl-pyridine-3-sulfonyl)-4,4a,5,6,7,8-hexahydro-1H-1,2,6-triazacyclopenta[b]naphthalene], the Ki in test [1] was 10 to 50 nM; in test [2], greater than 1 nM. Take `O=S(=O)(c1ccc(N2CC[C@@H](O)C2)nc1)N1CCC2=Cc3c(cnn3-c3ccc(F)cc3)C[C@]2(CN2CC[C@H](O)C2)C1` [Example 46, (S)-1-{(S)-1-(4-Fluorophenyl)-6-[6-((R)-3-hydroxy-pyrrolidin-3-ol)-pyridine-3-sulfonyl]-1,4,5,6,7,8-hexahydro-1,2,6-triaza-cyclopenta[b]naphthalene-4a-ylmethyl}-pyrrolidin-3-ol]: the Ki in test [2] is greater than 1 nM.
